Results taken from patent publication US20250177478A1, “G ALPHA Q/11 INHIBITORS FOR USE AS AN ANALGESIC” (University of Florida Research Foundation, Incorporated, priority 2022, published 2025).

Tests used:
DRG nociceptors = experiment: Whole cell patch-clamp recordings of acutely dissociated DRG nociceptors; type: cell-based, mouse
Procedure: F. Acutely dissociated dorsal root ganglion (DRG) Preparation. Male or female mice between 1 and 2 months of age were used for acute DRG isolations. […] Dissociated DRG cultures were prepared as previously described (Perner C et al. “Protocol for dissection and culture of murine dorsal root ganglia neurons to study neuropeptide release.” STAR Protoc (2021) 2:100333). Briefly, DRGs were dissected from 1- to 2-month-old mice in Hank's buffered salt solution (HBSS) and digested with Collagenase A and Dispase II for 25 min at 37° C., centrifuged at 200×g for 5 min, and washed with Dulbecco's modified Eagle's medium (DMEM) supplemented with 10% fetal bovine serum (FBS), glutamate, sodium pyruvate, 1% penicillin and 1% streptomycin. DRGs were then triturated in Neurobasal A medium supplemented with 10% FBS, 1% penicillin, 1% streptomycin, 1% GlutaMAX, 2% B27, […] nerve growth factor (NGF) and […] glial cell line-derived neurotrophic factor (GDNF). After plating on laminin-coated coverslips, cells were incubated at 37° C. overnight. Experiments were performed the day after dissection.
G. Whole cell patch-clamp recordings. Nociceptors were identified by physiological classification protocols (Petruska J C et al. “Subclassified acutely dissociated cells of rat DRG: histochemistry and patterns of capsaicin-, proton-, and ATP-activated currents.” J Neurophysiol (2000) 84:2365-2379) summarized in FIG. 10 and further by responsivity to morphine. Each experimental group consisted of 12-18 DRG recordings from three animals, 1-2 of which were female. Hyperpolarization-activated current (Ih) and kinetics of resulting transient currents were determined by stepping membrane potential from −60 to −110 mV for 500 ms in 10 mV increments (FIG. 10A). Outward currents were identified by first preconditioning membrane potential at −100 mV for 500 ms and then stepping from −60 to 40 mV in 20 mV increments for 200 ms (FIG. 10D). Inward current dynamics were determined by preconditioning at −80 mV and then stepping from −60 to 40 mV in 10 mV increments (FIG. 10G). A 6-s, 0- to 2-nA continuous ramp stimulation protocol was used to determine rheobase. Membrane capacitance (Cm), series resistance (Rs) and input resistance (Ri) were tested with a hyperpolarizing 10 mV pulse of 10 ms duration initially and at a 30 s interval throughout the recording period. Cells were recorded only if initial series resistance was ≤20 MΩ and excluded if Rs varied >20% while recording. Offline analysis identified clustering of a population n=30 with uniform morphine responsivity that was selected for further analysis, with basal parameters #SEM: Cm=27.31±4.72 pF, Ri=492±19.29 MQ, Ih=7.10±2.45 pA·pF−1, IA tau=8.39±0.41 ms and action potential (AP) tau=1.22±0.08 ms. K+ internal was used for all recordings, containing: 6 mM NaCl, 4 mM NaOH, 130 mM K-gluconate, 11 mM ethylene glycol-bis(β-aminoethyl ether)tetraacetic acid (EGTA), 1 mM CaCl2, 1 mM MgCl2, 10 mM N-(2-hydroxyethyl)piperazine-N′-(2-ethanesulphonic acid) (HEPES), 2 mM Na2ATP, and 0.2 mM Na2GTP 0.2, adjusted to pH 7.3-7.4 with HCl. External artificial CSF contained: 125 mM NaCl, 3 mM KCl, 1.2 mM KH2PO4, 1.2 mM MgSO4, 25 mM NaHCO3, 2 mM CaCl2), and 10 mM dextrose 10, adjusted to pH 7.3-7.4 with HCl.

C57BL/6 mice = details: morphine 5 mg/kg s.c. alone, 120 min
Excerpt: A. Experimental animals. C57BL/6 mice (6-8 weeks old) of both sexes were used. Mice were housed in groups on a 12-h light-dark cycle (6:00 am light cycle; 6:00 pm dark cycle) with food (Teklad Global 16% protein rodent diets; Envigo Inc., WI, USA) and water available ad libitum. Animal groups were compiled to ensure minimization of factors (e.g., weight, sex, and health). Mice were within 20-28 g in weight at start of all studies. All tested groups contained a control group and consisted of male and female mice. Males and females were tested on the same day but at different times so that they were not in the room at the same time. All the experiments were tested during the light cycle between 8:00 am and 3:00 pm to avoid any long-term disruption of sleep cycles. Mice were transferred to the behavioural testing room at least 45 min before the first test to acclimatize. Following behavioural evaluation, animals were killed by CO2 inhalation, followed by cervical dislocation and postmortem decapitation.
B. Drug treatments. […] The dose of YM-254890 for subcutaneous injection was taken from previous published studies. The dose of morphine selected for subcutaneous administration (2.5, 5 and 10 mg kg-1) is commonly used in mouse analgesia. For the combined administration of morphine and YM-254890 on thermal anti-nociception, YM-254890 was administered 10 min before the morphine. The latency of response was measured before injection of drugs (baseline latency response) and at different time intervals (post-treatment latency response) after drugs injection.
C. Intrathecal injections. Intrathecal (i.t.) administration was performed following the method described previously (Hylden J L et al. “Intrathecal morphine in mice: a new technique.” Eur J Pharmacol (1980) 67:313-316; Li D et al. “Direct Intrathecal Injection of Recombinant Adeno-associated Viruses in Adult Mice.” J Vis Exp (2019)) with slight modifications. All intrathecal injections were performed using a 25 μL Hamilton syringe with a 30-gauge needle. The injection volume was 5 μL for each mouse. […] Each solution was injected without injection cannulae. Intrathecal injections were made into the L5-L6 intervertebral space of unanesthetized mice. The flick of the tail was considered indicative of a successful i.t. administration.

CN1CC[C@]23c4c5ccc(O)c4O[C@H]2[C@@H](O)C=C[C@H]3[C@H]1C5 [morphine] was tested, and the “rapidly inactivating A-type potassium currents (IA), voltage-step protocol 2” value (DRG nociceptors; YM-254890 or morphine alone) was “significantly inhibited IA”, the “AP amplitude, voltage-step protocol” value (DRG nociceptors; bath application alone: 100 nM YM or 1 μM morphine) was “moderately reduced AP amplitude” and the “excitability of DRG nociceptors (rheobase, 0-2 nA ramp stimulation)” value (DRG nociceptors; bath application alone: 1 μM morphine or 100 nM YM) was “substantially decreased excitability”. The “locomotion in open-field test” value (C57BL/6 mice) was “locomotor-sensitizing effect”.
